US9974832B2, “Therapeutic effects of bryostatins, bryologs, and other related substances on head trauma-induced memory impairment and brain injury” (Cognitive Research Enterprises, Inc., priority 2007, dated 2018)

Columns and labels:
[1] = tested on: head trauma-induced brain injury and memory impairment; test: minimal traumatic brain injury in mice, Morris Water Maze; format: in vivo; conditions: treatment started one hour after head trauma
Method: Minimal traumatic brain injury (TBI) was produced in mice by a concussive event using a 30 g mass. One hour post trauma, the mice received 20 or 30 μg bryostatin per kg doses by intraperitoneal injection. The injections were repeated twice weekly for a total of 5 treatments. The effects on learning and memory of bryostatin treatment in treated animals was tested in the Morris Water Maze.
The platform was removed and the animals were tested for how long they searched the correct quadrant versus the incorrect quadrants. In the passive avoidance procedure the animal remembers the distinctive environment in which a mild electric shock is delivered and avoids it on a second occasion.
Minimal traumatic brain injury (TBI) was produced in mice by a concussive event using a 30 g mass. One hour post trauma, the mice received 30 μg bryostatin per kg doses by intraperitoneal injection. The injections were repeated twice weekly for a total of 5 treatments. The escape latencies in a Morris Water Maze of mice treated with bryostatin after minimal TBI were compared to animals with minimal TBI, control animals receiving no TBI or bryostatin, and animals receiving bryostatin only.
Minimal traumatic brain injury (TBI) was produced in mice by a concussive event using a 30 g mass. One hour post trauma, the mice received 20 μg bryostatin per kg doses by intraperitoneal injection. […]

tumor promotion = conditions: cited from earlier work
[2] = in vivo; cited from earlier work
PKCϵ = molecular target: T1, PKCϵ (Homo sapiens, UniProt Q02156); conditions: cited from earlier work
T1 sequence (Q02156 1-737): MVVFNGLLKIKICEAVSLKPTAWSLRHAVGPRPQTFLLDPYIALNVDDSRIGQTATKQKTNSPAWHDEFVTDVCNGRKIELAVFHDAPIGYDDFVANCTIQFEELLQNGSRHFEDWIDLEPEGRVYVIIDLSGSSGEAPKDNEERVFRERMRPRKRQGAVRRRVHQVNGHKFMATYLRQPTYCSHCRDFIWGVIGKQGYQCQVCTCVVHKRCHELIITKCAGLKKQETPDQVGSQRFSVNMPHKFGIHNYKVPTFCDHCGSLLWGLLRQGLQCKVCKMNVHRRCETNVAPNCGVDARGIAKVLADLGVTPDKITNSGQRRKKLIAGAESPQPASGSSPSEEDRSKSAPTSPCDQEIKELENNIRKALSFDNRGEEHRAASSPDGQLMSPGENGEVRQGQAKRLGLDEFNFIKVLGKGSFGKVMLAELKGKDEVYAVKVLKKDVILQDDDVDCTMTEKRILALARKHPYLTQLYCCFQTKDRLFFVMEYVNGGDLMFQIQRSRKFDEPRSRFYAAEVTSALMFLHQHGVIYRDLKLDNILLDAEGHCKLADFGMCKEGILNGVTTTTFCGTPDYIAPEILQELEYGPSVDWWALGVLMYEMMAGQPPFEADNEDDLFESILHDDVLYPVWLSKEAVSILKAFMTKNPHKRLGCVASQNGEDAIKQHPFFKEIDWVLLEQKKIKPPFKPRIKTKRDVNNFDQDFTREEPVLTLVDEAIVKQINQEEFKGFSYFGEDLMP

[3] = tested on: murine leukemias and solid tumors; conditions: cited from earlier work
PKC [4] = conditions: K562 cells; cited from earlier work
[5] = tested on: cyclin dependent kinase 2 (Cdk2); conditions: at 5 ng/ml; cited from earlier work
[6] = tested on: squamous cell carcinoma and melanoma; conditions: used topically; cited from earlier work
NCI 60 cell line screen = conditions: cited from earlier work
[7] = (−)-enantiomer; cited from earlier work
PKC [8] = conditions: read-out: affinity for PKC, A-ring bryologs; cited from earlier work
[9] = compared with phorbol; cited from earlier work

## CCCC=CC=CC(=O)OC1C(=CC(=O)OC)CC2CC(C(C)O)OC(=O)CC(O)CC3CC(OC(C)=O)C(C)(C)C(O)(CC4CC(=CC(=O)OC)CC(C=CC(C)(C)C1(O)O2)O4)O3 (stereo not drawn) [Bryostatin 1, bryostatin-1]
[1]
  therapeutic effect on brain injury and memory impairment induced with head trauma: therapeutic value against brain injury and memory impairment
Tumor promotion
  tumor promotion activity: devoid of tumor promotion activity
[2]
  main adverse reaction in humans: myalgia
  tolerability of doses in humans: well tolerated in humans

## CCCCCC1CC1CC1CC1CCCCCCCC(=O)O (stereo not drawn) [DCP-LA, 2-[(2-pentylcyclopropyl)methyl]cyclopropaneoctanoic acid]
PKCϵ
  concentration of maximal effect: 100 nM

## C=C(C)[C@]12C[C@@H](COC(=O)c3ccccc3)[C@@]34OC5(O[C@@H]1[C@@H]3C1O[C@]1(CO)[C@@H](O)[C@@]1(O)[C@H]4[C@@H](C(C)CCCCCC[C@@H]5O)C(C)[C@@H]1OC(=O)c1ccccc1)O2 (stereo partly drawn) [Gnidimacrin]
[3]
  concentrations with potent antitumor activity: 0.1 to 1 nM
PKC [4]
  concentration at which it acts as a PKC activator: ≈ 3 nM
[5]
  inhibition of Cdk2: 100%

## C/C=C(/C)C(=O)O[C@H]1C(C)=C[C@]23C(=O)[C@@H](C=C(CO)[C@@H](O)[C@]12O)[C@H]1[C@@H](C[C@H]3C)C1(C)C [Ingenol-3-angelate]
[6]
  antitumor activity: possesses antitumor activity

## CC1=CC[C@H](C)C(C)(C)[C@@H]1/C=C/C(C)=C/CC[C@@]1(CO)[C@H](CCCO)/C(=C(/C)C=O)CC[C@]1(C)O [Iripallidal]
NCI 60 cell line screen
  GI50 (concentration required to inhibit growth by 50%): micromolar to nanomolar range

## CCCCCCCCc1ccc2c3c(c[nH]c13)C[C@@H](CO)NC(=O)[C@H](C(C)C)N2C [Octylindolactam V]
[7]
  metabolic stability: greater metabolic stability

## CCCCCCCC(=O)OC1C(=CC(=O)OC)CC2CC(CO)OC(=O)CC(O)CCOC(C(C)(C)C)CC3CCOC(C=CC(C)(C)C1(O)O2)O3 (stereo not drawn) [bryolog 3]
PKC [8]
  Ki: 6.5 nM

## CCCCCCCC(=O)OC1C(=CC(=O)OC)CC2CC(CO)OC(=O)CC(O)CCOC(c3ccccc3)CC3CCOC(C=CC(C)(C)C1(O)O2)O3 (stereo not drawn) [bryolog 4]
PKC [8]
  Ki: 2.3 nM

## CCCCCCCC(=O)OC1C(=CC(=O)OC)CC2CC(CO)OC(=O)CC(O)CCOC(CCCc3ccc(Br)cc3)CC3CCOC(C=CC(C)(C)C1(O)O2)O3 (stereo not drawn) [bryolog 5]
PKC [8]
  Ki: 1.9 nM

## Ingenol
[9]
  toxicity: much less toxicity
